In US20060040931A1, “Benzomorpholine derivatives” (Toray Industries, Inc., priority 2002, published 2006):
pIC50: −log10 of the molar value.

Tests used:
platelet aggregation = assay: Monkey platelet aggregation inhibitory test after oral administration (ex vivo, ADP-induced, PRP); type: in vivo; settings: male crab-eating monkeys, blood before and 30, 60, 120, 180 min after administration, 10 μM ADP, FIG. 1
Procedure: Male crab-eating monkeys (4 to 6 kg) were retained in monkey chairs. After 30 minutes of acclimatization, the compound of Example 1-13 was orally administered to the monkeys using catheters (16 Fr).
Blood was collected via saphenous veins before, and 30, 60, 120 and 180 minutes after administration of drug solutions using a syringe that had previously contained a 3.8% sodium citrate solution in a volume that was one-tenth of that of collected blood.
The collected blood was centrifuged at 1000 rpm for 10 minutes. Upper portions of the resultants were collected as platelet rich plasma (PRP). PRP was apportioned into small test tubes, and 10 μM of ADP was added thereto to induce platelet aggregation. The degree of platelet aggregation was measured as a change in turbidity using an aggregometer (Hematracer 1, Nikobioscience).

[1] = tested on: human platelet aggregation; assay: Human platelet aggregation inhibitory test (ADP-induced, platelet rich plasma); type: cell-based; settings: human PRP, 5 μM ADP, compound added 1 minute before ADP, turbidity (aggregometer), read-out: Platelet Aggregation Inhibitory Effect IC50
Procedure: Blood collected from human median cubital vein was centrifuged at 800 rpm for 10 minutes. Upper portion of the resultant was collected as platelet rich plasma (PRP). PRP was dispensed to small test tubes, and 5 μM of ADP was added thereto to induce platelet aggregation. The degree of platelet aggregation was measured as a change in turbidity using an aggregometer (Hematracer 1, Nikobioscience). Each compound was added 1 minute before ADP addition, and calculation was carried out using as an IC50 value a concentration that inhibits aggregation by 50%.

Row | Structure (SMILES) | inhibitory effect of platelet aggregation after oral administration (platelet aggregation) | pIC50 [1]
1 | O=C(O)COc1cccc2c1OCCN2CCN(C(=O)c1ccccc1)c1ccc(Br)cc1 [Example 1-13] | strong inhibitory effect of platelet aggregation | 
2 | O=C(O)COc1cccc2c1OCCN2CCN(C(=O)c1ccccc1)c1ccc(Cl)cc1 [Example 1-14] |  | 7.89
3 | Cc1ccc(N(CCN2CCOc3c(OCC(=O)O)cccc32)C(=O)c2ccccc2)cc1 [Example 1-16] |  | 8.28
4 | Cc1ccc(C(=O)N(CCN2CCOc3c(OCC(=O)O)cccc32)c2ccc(C)cc2)cc1 [Example 1-28] |  | 8.23
5 | CSc1ccc(N(CCN2CCOc3c(OCC(=O)O)cccc32)C(=O)c2ccccc2)cc1 [Example 1-40] |  | 7.85
6 | O=C(O)COc1cccc2c1OCCN2CCN(C(=O)c1ccccc1)c1ccc(Cl)cc1Cl [Example 1-49] |  | 7.74
7 | O=C(O)COc1cccc2c1OCCN2CCN(C(=O)c1ccccc1)c1ccc(Cl)cc1F [Example 1-63] |  | 8.06
8 | Cc1ccc(C(=O)N(CCN2CCOc3c(OCC(=O)O)cccc32)c2ccc(Br)cc2)cc1 [Example 2-4] |  | 7.57
9 | O=C(O)COc1cccc2c1OCCN2CCN(C(=O)C1=CCCCC1)c1ccc(Br)cc1 [Example 2-27] |  | 7.26
